Results from PMC9415509, “Pro-Apoptotic Antitumoral Effect of Novel Acridine-Core Naphthoquinone Compounds against Oral Squamous Cell Carcinoma” (Molecules, 2022).
Like-named read-outs stand apart in the source and are kept apart here.

How the values were obtained:
[1] = test system: SCC4 OSCC cell line; test: MTT cell viability assay (cytotoxicity), SCC4; type: cell-based, human; conditions: for IC50: read-out: Oral Tumor Cells SCC4 IC50; for SCC4 S.I.: IC50 normal oral fibroblasts / IC50 SCC4
Protocol: (§1) Cells and reagents. Human SCC-4, SCC-9, and SCC-25 cells, derived from a human oral tongue SCC (squamous cell carcinoma) were obtained from the ATCC (CRL-1624, CRL-1629, and CRL-1628, respectively) and maintained in 1:1 DMEM/F12 (Dulbecco’s modified Eagle medium and Ham’s F12 medium; Gibco (Thermo Fisher, Waltham, MA, USA)) supplemented with 10% (v/v) FBS (fetal bovine serum; Invitrogen, Thermo Fisher, Waltham, MA, USA) and 400 ng/mL hydrocortisone (Sigma-Aldrich Co., St. Louis, MO, USA). Primary normal human gingival fibroblasts were obtained from the ATCC (PCS-201-018) and maintained in DMEM supplemented with 10% (v/v) FBS and were used in a maximum of six passages. The cells were grown in a humidified environment containing 5% CO2 at 37 °C. […] Carboplatin stock was prepared in water (Fauldcarbo®; LibbsFarmacêutica, São Paulo, SP, Brazil) and was used as a standard anticancer compound.
(§2) Cell viability assay (cytotoxicity) and compound stability assay. The viability of SCC cell lines and primary human fibroblast cells was evaluated using the MTT assay as in [48]. Briefly, the cells were grown in triplicates in 96-well plates (5 × 10^3 cells/well) until confluence. Then, the medium was removed, fresh medium was added, and the cells were returned to the incubator in the presence of different compounds. DMSO at the same concentrations was used as a 100% cell viability control. After 48 h, the cells were incubated with 5 mg/mL MTT reagent (3-(4,5-dimethyl-2-thiazolyl)-2,5-diphenyl-2-H-tetrazolium bromide) (Sigma-Aldrich Co., St. Louis, MO, USA) for 3.5 h. After that, formazan crystals were dissolved in MTT solvent solution (DMSO/methanol 1:1 v/v) and the absorbance at 560 nm was evaluated using an EPOCH microplate spectrophotometer (BioTek Instruments, Winooski, VT, USA) with the background absorbance at 670 nm subtracted.
(§3) Statistical analysis, IC50 calculation. The data are presented as means ±\SD. IC50 values for the MTT assays were obtained by nonlinear regression using the […] 5.0 program (Intuitive Software for Science, San Diego, CA, USA) from at least three independent experiments. A dose–response (inhibitor) vs. response curve using the least squares method was used to determine the IC50, SD, and R^2 of the data. The selectivity index was calculated as SI = IC50 of the compound in normal oral fibroblast cells/IC50 of the same compound for each oral cancer cell line (SCC-4, SCC-9, and SCC-25) and the mean was calculated when indicated.

[2] = test system: SCC9 (OSCC cell); test: MTT cell viability assay (cytotoxicity), SCC9; type: cell-based, human; conditions: for IC50: read-out: SCC9—Oral Cancer IC50; for SCC9 S.I.: IC50 normal oral fibroblasts / IC50 SCC9
Protocol: as §1, §2, §3

[3] = test system: Primary normal human gingival fibroblasts; test: MTT cell viability assay, normal fibroblasts; type: cell-based; conditions: 48 h, read-out: Primary Gingival Fibroblast IC50
Protocol: as §1, §2, §3

[4] = test system: SCC25 OSCC cell line; test: MTT cell viability assay (cytotoxicity), SCC25; type: cell-based, human; conditions: for IC50: read-out: Oral Tumor Cells SCC25 IC50; for SCC25 S.I.: IC50 normal oral fibroblasts / IC50 SCC25
Protocol: as §1, §2, §3

[5] = Solubility observation during MTT testing; type: physicochemical
Protocol: All 26 acridine-core naphthoquinone compounds were submitted to the MTT assay to assess their cytotoxicity. […] These compounds were excluded from further biological experimentation. First, the assay was conducted on the SCC9 OSCC cell line and the results were analyzed by a nonlinear regression curve to determine the value of the half maximal inhibitory concentration (IC50). […] Anticancer activities of these compounds are reported here for the first time.

[6] = Homo sapiens, SCC-4, SCC4, 48 h, MTT
[7] = Homo sapiens, SCC-9, SCC9, 48 h, MTT (Table 1)
[8] = Homo sapiens, Fibroblast, primary gingival fibroblasts, MTT
[9] = Homo sapiens, SCC-25, SCC25, 48 h, MTT
[10] = formed crystals at low concentrations in MTT assay

Molecule | IC50 [2, 7] | solubility [5, 10] | melting point | other results
COc1cccc2c1C(=O)c1c(O)c3c(c(O)c1C2=O)C[C@@](O)(C(=O)CO)C[C@@H]3O[C@H]1C[C@H](N)[C@H](O)[C@H](C)O1 [Doxorubicin, doxorubicin] | 7.8 µM |  |  | IC50 [1, 6]: 4.56 µM; SCC4 S.I. [1]: 2.7; SCC9 S.I. [2]: 1.6; IC50 [3, 8]: 12.3 µM; IC50 [4, 9]: 1.27 µM; SCC25 S.I. [4]: 9.7
CC(C)=CC[C@@H](O)C1=CC(=O)c2c(O)ccc(O)c2C1=O [Shikonin, shikonin] |  |  |  | IC50 ([1]; Homo sapiens, SCC-4, 48 h): 3.19 µM; SCC4 S.I. [1]: 0.8; IC50 ([2]; Homo sapiens, SCC-9, 48 h): 1.22 µM; SCC9 S.I. [2]: 2.0; IC50 ([3]; Homo sapiens, Fibroblast): 2.48 µM; IC50 ([4]; Homo sapiens, SCC-25, 48 h): 2.47 µM; SCC25 S.I. [4]: 1.0
CC1(C)CC(=O)C2=C(C1)NC1=C(C(=O)c3ccccc3C1=O)C2c1ccccc1Cl (centres unmarked) [4b, 12-(2-chlorophenyl)-3,3-dimethyl-3,4-dihydrobenzo[b]acridine-1,6,11(2H,5H,12H)-trione] |  | highly insoluble |  | 
COc1ccc(C2C3=C(CCCC3=O)NC3=C2C(=O)c2ccccc2C3=O)cc1OC (centres unmarked) [5l, 12-(3,4-dimethoxyphenyl)-3,4-dihydrobenzo[b]acridine-1,6,11(2H,5H,12H)-trione] | 5.9 µM |  | 228 to 230 °C | 
COc1ccc(C2C3=C(CCCC3=O)NC3=C2C(=O)c2ccccc2C3=O)c(OC)c1 (centres unmarked) [5j, 12-(2,4-dimethoxyphenyl)-3,4-dihydrobenzo[b]acridine-1,6,11(2H,5H,12H)-trione] | 6.84 µM |  |  | 
O=C1CCCC2=C1C(c1ccc(Cl)cc1)C1=C(N2)C(=O)c2ccccc2C1=O (centres unmarked) [5d, 12-(4-chlorophenyl)-3,4-dihydrobenzo[b]acridine-1,6,11(2H,5H,12H)-trione] | 2.21 µM |  | 230 to 231 °C | 
O=C1CCCC2=C1C(c1ccccc1Cl)C1=C(N2)C(=O)c2ccccc2C1=O (centres unmarked) [5b, 12-(2-chlorophenyl)-3,4-dihydrobenzo[b]acridine-1,6,11(2H,5H,12H)-trione] |  | highly insoluble |  | 
CC1(C)CC(=O)C2=C(C1)NC1=C(C(=O)c3ccccc3C1=O)C2c1cccc(Cl)c1 (centres unmarked) [4c, 12-(3-chlorophenyl)-3,3-dimethyl-3,4-dihydrobenzo[b]acridine-1,6,11(2H,5H,12H)-trione] | 14.7 µM |  | 249 to 251 °C | 
N.N.O=C([O-])C1(C(=O)[O-])CCC1.[Pt+2] [Carboplatin, carboplatin] |  |  |  | SCC4 S.I. [1]: 3.1; IC50 ([1]; SCC4, 48 h, MTT): 180 µM; SCC9 S.I. [2]: 2.2; IC50 ([2]; SCC9, 48 h, MTT (Table 1)): 250 µM; IC50 ([3]; primary gingival fibroblasts, MTT): 560 µM; SCC25 S.I. [4]: 3.0; IC50 ([4]; SCC25, 48 h, MTT): 186 µM
12-(3,3-dimethylphenyl)-3,4-dihydrobenzo[b]acridine-1,6,11(2H,5H,12H)-trione [4a] |  |  |  | solubility [5]: highly insoluble
CC1(C)CC(=O)C2=C(C1)NC1=C(C(=O)c3ccccc3C1=O)C2c1c(F)c(F)c(F)c(F)c1F (centres unmarked) [4g, 12-(perfluorophenyl)-3,3-dimethyl-3,4-dihydrobenzo[b]acridine-1,6,11(2H,5H,12H)-trione] |  | highly insoluble | 260 to 261 °C | 
CC1(C)CC(=O)C2=C(C1)NC1=C(C(=O)c3ccccc3C1=O)C2c1ccc(Cl)cc1 (centres unmarked) [4d, 12-(4-chlorophenyl)-3,3-dimethyl-3,4-dihydrobenzo[b]acridine-1,6,11(2H,5H,12H)-trione] | 51.6 µM |  | 287 to 288 °C | 
CC(C)=CCC1=C(O)C(=O)c2ccccc2C1=O [Lapachol, lapachol] | 58.3 µM |  |  | IC50 [1, 6]: 76.9 µM; SCC4 S.I. [1]: 1.4; SCC9 S.I. [2]: 1.8; IC50 [3, 8]: 106 µM; IC50 [4, 9]: 93.8 µM; SCC25 S.I. [4]: 1.1
O=C1CCCC2=C1C(c1ccccc1)C1=C(N2)C(=O)c2ccccc2C1=O (centres unmarked) [5a, 12-phenyl-3,4-dihydrobenzo[b]acridine-1,6,11(2H,5H,12H)-trione] |  | highly insoluble | 287 to 288 °C | 
COc1ccc(OC)c(C2C3=C(CCCC3=O)NC3=C2C(=O)c2ccccc2C3=O)c1 (centres unmarked) [5k, 12-(2,5-dimethoxyphenyl)-3,4-dihydrobenzo[b]acridine-1,6,11(2H,5H,12H)-trione] | 7.2 µM |  | 219 to 220 °C | 
O=C1CCCC2=C1C(c1ccc(Cl)cc1Cl)C1=C(N2)C(=O)c2ccccc2C1=O (centres unmarked) [5e, 12-(2.4-dichlorophenyl)-3,4-dihydrobenzo[b]acridine-1,6,11(2H,5H,12H)-trione] | 4.75 µM |  |  | 
O=C1CCCC2=C1C(c1cccc(Cl)c1)C1=C(N2)C(=O)c2ccccc2C1=O (centres unmarked) [5c, 12-(3-chlorophenyl)-3,4-dihydrobenzo[b]acridine-1,6,11(2H,5H,12H)-trione] | 8.93 µM |  | 217 to 218 °C | 
CC1(C)CC(=O)C2=C(C1)NC1=C(C(=O)c3ccccc3C1=O)C2c1ccc(Br)cc1 (centres unmarked) [4h, 12-(4-bromophenyl)-3,3-dimethyl-3,4-dihydrobenzo[b]acridine-1,6,11(2H,5H,12H)-trione] | 5.86 µM |  | 293 to 295 °C | 
Cc1ccc(C2C3=C(CC(C)(C)CC3=O)NC3=C2C(=O)c2ccccc2C3=O)c(C)c1 (centres unmarked) [4i, 12-(2,4-dimethylphenyl)-3,3-dimethyl-3,4-dihydrobenzo[b]acridine-1,6,11(2H,5H,12H)-trione] |  | highly insoluble |  | 
COc1cc(C2C3=C(CCCC3=O)NC3=C2C(=O)c2ccccc2C3=O)cc(OC)c1OC (centres unmarked) [5m, 12-(3,4,5-trimethoxyphenyl)-3,4-dihydrobenzo[b]acridine-1,6,11(2H,5H,12H)-trione] | 3.32 µM |  | 236 to 237 °C | 
O=C1CCCC2=C1C(c1c(F)c(F)c(F)c(F)c1F)C1=C(N2)C(=O)c2ccccc2C1=O (centres unmarked) [5g, 12-(perfluorophenyl)-3,4-dihydrobenzo[b]acridine-1,6,11(2H,5H,12H)-trione] |  | highly insoluble |  | 
COc1ccc(C2C3=C(CC(C)(C)CC3=O)NC3=C2C(=O)c2ccccc2C3=O)cc1OC (centres unmarked) [4l, 12-(3,4-dimethoxyphenyl)-3,3-dimethyl-3,4-dihydrobenzo[b]acridine-1,6,11(2H,5H,12H)-trione] | 4.46 µM |  | 238 to 239 °C | 
O=C1CCCC2=C1C(c1ccc(F)cc1)C1=C(N2)C(=O)c2ccccc2C1=O (centres unmarked) [5f, 12-(4-fluorophenyl)-3,4-dihydrobenzo[b]acridine-1,6,11(2H,5H,12H)-trione] |  | highly insoluble | 255 to 256 °C | 
CC1(C)CC(=O)C2=C(C1)NC1=C(C(=O)c3ccccc3C1=O)C2c1ccc(F)cc1 (centres unmarked) [4f, 12-(4-fluorophenyl)-3,3-dimethyl-3,4-dihydrobenzo[b]acridine-1,6,11(2H,5H,12H)-trione] |  | highly insoluble | 295 to 297 °C | 
Cc1ccc(C2C3=C(CCCC3=O)NC3=C2C(=O)c2ccccc2C3=O)c(C)c1 (centres unmarked) [5i, 12-(2,4-dimethylphenyl)-3,4-dihydrobenzo[b]acridine-1,6,11(2H,5H,12H)-trione] |  | highly insoluble | 263 to 264 °C | 
O=C1CCCC2=C1C(c1ccc(Br)cc1)C1=C(N2)C(=O)c2ccccc2C1=O (centres unmarked) [5h, 12-(4-bromophenyl)-3,4-dihydrobenzo[b]acridine-1,6,11(2H,5H,12H)-trione] | 7.63 µM |  | 257 to 258 °C | 
